{"source": "patent US7202213B2", "about": "(Novo Nordisk A/S, priority 2000, dated 2007)", "key": {"human PPAR γ": {"molecular_target": "T1, human PPAR γ (Homo sapiens, UniProt P37231)", "T1 construct": "PPARα: aa 167-C-terminus; PPARγ: aa 165-C-terminus; expressed in transfected cells; host or cells: HEK293", "T1 sequence (P37231 165-477 isoform P37231-2)": "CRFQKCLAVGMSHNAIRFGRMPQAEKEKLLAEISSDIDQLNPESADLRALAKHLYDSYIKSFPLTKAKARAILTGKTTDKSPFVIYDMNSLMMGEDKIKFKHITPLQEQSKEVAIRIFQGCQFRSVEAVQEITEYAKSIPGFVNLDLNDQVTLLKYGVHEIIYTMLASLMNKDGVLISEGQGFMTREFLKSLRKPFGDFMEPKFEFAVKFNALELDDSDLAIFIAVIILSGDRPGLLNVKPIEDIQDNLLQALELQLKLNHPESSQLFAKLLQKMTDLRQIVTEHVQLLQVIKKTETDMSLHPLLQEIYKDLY", "experiment": "In vitro PPAR gamma transactivation assay (GAL4-DBD-PPAR-LBD luciferase reporter in HEK293 cells)", "assay_type": "cell-based", "conditions": "for EC50: HEK293 cells, 24 h with compound, five concentrations 0.01 to 30 μM, means of at least three experiments, read-out: In vitro activation PPAR γ EC50; for In vitro activation PPAR γ % max: fold activation relative to maximum activation obtained with rosiglitazone (approx. […] fold corresponded to 100%)", "excerpt": "(§1) The PPAR gene transcription activation assays were based on transient transfection into human HEK293 cells of two plasmids encoding a chimeric test protein and a reporter protein respectively. The chimeric test protein was a fusion of the DNA binding domain (DBD) from the yeast GAL4 transcription factor to the ligand binding domain (LBD) of the human PPAR proteins. The PPAR LBD harbored in addition to the ligand binding pocket also the native activation domain (activating function 2=AF2) allowing the fusion protein to function as a PPAR ligand dependent transcription factor. The GAL4 DBD will force the fusion protein to bind only to Gal4 enhancers (of which none existed in HEK293 cells). The reporter plasmid contained a Gal4 enhancer driving the expression of the firefly luciferase protein. After transfection, HEK293 cells expressed the GAL4-DBD-PPAR-LBD fusion protein. The fusion protein will in turn bind to the Gal4 enhancer controlling the luciferase expression, and do nothing in the absence of ligand. Upon addition to the cells of a PPAR ligand, luciferase protein will be produced in amounts corresponding to the activation of the PPAR protein. The amount of luciferase protein is measured by light emission after addition of the appropriate substrate.\n(§2) Cell culture and transfection: HEK293 cells were grown in DMEM+10% FCS. Cells were seeded in 96-well plates the day before transfection to give a confluency of 50–80% at transfection. A total of 0,8 μg DNA containing 0,64 μg pM1α/γLBD, 0,1 μg pCMVβGal, 0,08 μg pGL2Gal4DBD and 0,02 μg p[…] was transfected per well using FuGene transfection reagent according to the manufacturers instructions (Roche). Cells were allowed to express protein for 48 h followed by addition of compound.\n(§3) Plasmids: Human PPAR α and γ was obtained by PCR amplification using cDNA synthesized by reverse transcription of mRNA from liver and adipose tissue respectively. Amplified cDNAs were cloned into pCR2.1 and sequenced. The ligand binding domain (LBD) of each PPAR isoform was generated by PCR(PPARα: aa 167-C-terminus; PPARγ: aa 165-C-terminus) and fused to the DNA binding domain (DBD) of the yeast transcription factor GAL4 by subcloning fragments in frame into the vector pM1 generating the plasmids pM1αLBD and pM1γLBD. Ensuing fusions were verified by sequencing.\n(§4) Luciferase assay: Medium including test compound was aspirated and 100 μl PBS incl. 1 mM Mg++ and Ca++ was added to each well. The luciferase assay was performed using the LucLite kit according to the manufacturers instructions (Packard Instruments). Light emission was quantified by counting SPC mode on a Packard Instruments top-counter. To measure β-galactosidase activity 25 μl supernatant from each transfection lysate was transferred to a new microplate. β-galactosidase assays were performed in the microwell plates using a kit from Promega and read in a microplate reader. The β-galactosidase data were used to normalize (transfection efficiency, cell growth etc.) the luciferase data.\n(§5) Compounds: All compounds were dissolved in DMSO and diluted 1:1000 upon addition to the cells. Compounds were tested in quadruple in five concentrations ranging form 0.01 to 30 μM. Cells were treated with compound for 24 h followed by luciferase assay. Each compound was tested in three separate experiments. EC50 values were calculated via non-linear regression using GraphPad PRISM 3.02 (GraphPad Software, San Diego, Calif.). The results were expressed as means.\n(§6) Compounds were tested in at least three separate experiments in five concentrations ranging from 0.01 to 30 μM."}, "human PPAR α": {"molecular_target": "T2, human PPAR α (Homo sapiens, UniProt Q07869)", "T2 construct": "PPARα: aa 167-C-terminus; PPARγ: aa 165-C-terminus; expressed in transfected cells; host or cells: HEK293", "T2 sequence (Q07869 167-468 limits assumed)": "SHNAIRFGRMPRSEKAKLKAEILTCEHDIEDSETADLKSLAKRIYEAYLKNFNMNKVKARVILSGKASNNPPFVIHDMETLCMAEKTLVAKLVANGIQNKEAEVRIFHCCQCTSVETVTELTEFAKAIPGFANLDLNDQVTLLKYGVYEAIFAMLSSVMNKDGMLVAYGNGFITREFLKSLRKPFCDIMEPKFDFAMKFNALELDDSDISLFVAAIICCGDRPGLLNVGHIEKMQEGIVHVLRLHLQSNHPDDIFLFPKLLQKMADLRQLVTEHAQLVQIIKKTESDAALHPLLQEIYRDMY", "experiment": "In vitro PPAR alpha transactivation assay (GAL4-DBD-PPAR-LBD luciferase reporter in HEK293 cells)", "assay_type": "cell-based", "conditions": "for EC50: HEK293 cells, 24 h with compound, five concentrations 0.01 to 30 μM, means of at least three experiments, read-out: In vitro activation PPAR α EC50; for In vitro activation PPAR α % max: fold activation relative to maximum activation obtained with Wy14643 (approx. 20 fold corresponded to 100%)", "excerpt": "as §1, §2, §3, §4, §5, §6"}}}
{"compound": "CCOC(Cc1ccc(OCC=C(C)C#Cc2cccc3ccccc23)cc1)C(=O)O", "note": "(stereo in doubt) [Example 18, (Z)-(S)-2-ethoxy-3-[4-(3-methyl-5-(1-naphthyl)-pent-2-en-4-ynyloxy)-phenyl]-propionic acid]", "values": [{"measurement": "EC50", "setting": "human PPAR γ", "result": 2.67, "unit": "µM"}, {"measurement": "In vitro activation PPAR γ % max", "setting": "human PPAR γ", "result": 91, "unit": "%"}, {"measurement": "EC50", "setting": "human PPAR α", "result": 0.16, "unit": "µM"}, {"measurement": "In vitro activation PPAR α % max", "setting": "human PPAR α", "result": 181, "unit": "%"}]}
{"compound": "CCO[C@@H](Cc1ccc(OC/C=C(\\C)C#Cc2cc(Cl)cc(Cl)c2)cc1)C(=O)O", "note": "[Example 8, (E)-(S)-2-ethoxy-3-[4-(3-methyl-5-(3,5-dichloro-phenyl)-pent-2-en-4-ynyloxy)-phenyl]-propionic acid]", "values": [{"measurement": "EC50", "setting": "human PPAR γ", "result": 0.31, "unit": "µM"}, {"measurement": "In vitro activation PPAR γ % max", "setting": "human PPAR γ", "result": 126, "unit": "%"}, {"measurement": "EC50", "setting": "human PPAR α", "result": 0.06, "unit": "µM"}, {"measurement": "In vitro activation PPAR α % max", "setting": "human PPAR α", "result": 139, "unit": "%"}]}
{"compound": "CCO[C@@H](Cc1ccc(OC/C=C(\\C)C#Cc2cccc(C(F)(F)F)c2)cc1)C(=O)O", "note": "[Example 12, (E)-(S)-2-ethoxy-3-[4-(3-methyl-5-(3-trifluoromethyl-phenyl)-pent-2-en-4-ynyloxy)-phenyl]-propionic acid]", "values": [{"measurement": "EC50", "setting": "human PPAR γ", "result": 0.34, "unit": "µM"}, {"measurement": "In vitro activation PPAR γ % max", "setting": "human PPAR γ", "result": 105, "unit": "%"}, {"measurement": "EC50", "setting": "human PPAR α", "result": 0.05, "unit": "µM"}, {"measurement": "In vitro activation PPAR α % max", "setting": "human PPAR α", "result": 195, "unit": "%"}]}
{"compound": "CCO[C@@H](Cc1ccc(OC/C=C/C#Cc2cc(Cl)cc(Cl)c2)cc1)C(=O)O", "note": "[Example 20, (E)-(S)-2-Ethoxy-3-[4-(5-(3,5-dichloro-phenyl)-pent-2-en-4-ynyloxy)-phenyl]-propionic acid]", "values": [{"measurement": "EC50", "setting": "human PPAR γ", "result": 1.42, "unit": "µM"}, {"measurement": "In vitro activation PPAR γ % max", "setting": "human PPAR γ", "result": 112, "unit": "%"}, {"measurement": "EC50", "setting": "human PPAR α", "result": 0.04, "unit": "µM"}, {"measurement": "In vitro activation PPAR α % max", "setting": "human PPAR α", "result": 154, "unit": "%"}]}
{"compound": "Cc1cccc(Nc2cc(Cl)nc(SCC(=O)O)n2)c1C", "note": "[Wy14643, reference compound]", "values": [{"measurement": "Maximum activation PPAR α (fold activation)", "setting": "human PPAR α; reference maximum, corresponded to 100%", "result": "approx. 20 fold"}]}
